Consider 89 molecules from a melting point compilation (Tetko et al.; mined from patent text by program, amines drawn as free bases though some values may be those of a salt).

For the molecule `O=C(c1c[nH]c2c1ccc1c3ccccc3[nH]c12)C(F)(F)F`, the melting point (as a rule, the temperature of the solid-liquid transition) was over 295 °C.

The molecule `COc1cccc(CNC(=O)c2nc3ccc(O)cc3c(=O)[nH]2)c1` displayed a melting point of 268 to 271 °C.

In turn, `CCNC1(c2ccccc2Cl)C(=O)Nc2ccc(OCC)cc21` (centres undefined) had a melting point of 195 to 200 °C.

As to `CCOC(=O)C1CCCCN1C(=O)Nc1cc(C(=O)OC(C)C)c(Cl)cc1F` (centres undefined), the melting point was 83 to 85 °C.

Molecule `CC(C)(C)OC(=O)NCc1cccc(Cn2ccc(OCc3ccc(F)cc3)c(Br)c2=O)c1` had a melting point of 136 to 138 °C.

Consider `CN1CCCC1=C(C#N)c1ccc(Cl)cc1`, for which the melting point lay in the range of 71 to 72 °C.

Molecule `O=C1CCCN1[C@@H]1c2cc(Cl)ccc2OCC[C@H]1O` (relative stereo) showed a melting point of 186 to 188 °C.

`CN(CCCNc1ncc(Cc2ccc(Cl)c(Cl)c2)c(=O)[nH]1)c1ccccn1` registered a melting point of 86 to 92 °C.

For the molecule `CC1(C)CCC(C)(C)N1CC(O)COc1cc2ccccc2c(=O)c2ccsc12` (centres undefined), the melting point lay in the range of 104 to 107 °C.

Take `O=C1CCC2(CN1)C(=O)C(=O)c1ccccc12` (centres undefined): the melting point lay within 227 to 228 °C.

For the molecule `CC(=O)Nc1nc(OCC(C)C)c2nc(Cl)ccc2n1`, the melting point was determined as 168 °C.

`Cc1ccc2[nH]c3c(c2c1)CC(C)n1c-3nc2c(c1=O)CCCC2` (centres undefined) came in with a melting point of 220 °C.

Take `CC(C)c1ccccc1N1/C(=N\N=C/c2ccc(-c3ncn(-c4ccc(OC(F)(F)F)cc4)n3)cc2)SCC1(C)O` (centres undefined): the melting point lay in the range of 114 to 116 °C.

With `O=[N+]([O-])c1cccnc1NCC(O)CO` (centres undefined), the melting point was in the range of 95.5 to 98 °C.

As to `COc1ccc(C(=O)[NH+]([O-])c2c(Cl)cncc2Cl)c2c1oc1ccc(C(F)(F)F)cc12` (centres undefined), the melting point came to 272 °C.

In turn, `COc1cc2ncnc(Sc3cccc(O)c3)c2cc1OC` displayed a melting point of 221 to 230 °C.

Turning to `N=C(Nc1ccc(OCCNCc2ccccc2)cc1F)c1cccs1`, the melting point lay within 105 to 107 °C.

`CN(C)c1ccc(C2CC3(C)C(O)CCC3C3CCC4=CC(=O)CCC4=C23)cc1` (centres undefined) yielded a melting point of 166 to 167 °C.

In the case of `CCOC(=O)c1cc(=O)c2c(OCC(O)COc3ccc(OC)cc3)cccc2o1` (centres undefined), the melting point lay in the range of 135 to 136 °C.

In turn, `COc1ccc(-c2ccc(COc3cc4c(cc3CCN(CCCCC(=O)O)Cc3ccc(C(=O)O)cc3)CCCC4)cc2)cc1` had a melting point of over 240 °C.

`Nc1ccc(Sc2ccccc2)cc1Cl` returned a melting point of 59 to 60 °C.

`CCOC(=O)c1c(C)nc2c(c1N)c1c(n2Cc2ccc(OC)cc2)CCCC1` registered a melting point of 108 to 110 °C.

As for `Clc1cc(Oc2ccc3ncccc3c2)ncn1`, the melting point fell in the range of 136 to 137 °C.

Take `CN1CC(CCCl)Sc2ncccc2C1=S` (centres undefined): the melting point lay in the range of 160 to 162 °C.

In the case of `COC(=O)COc1cccc2c1c(C(=O)C(N)=O)c(C)n2Cc1cccc2ccccc12`, the melting point was in the range of 188 to 190 °C.

`NC(=O)c1ccccc1N1CCc2cc(Cl)ccc21` had a melting point of 137 to 138 °C.

As to `CCN(CCCN1C(=O)c2cc(OC)ccc2C(C)(C)C1=O)CCCN1C(=O)c2cc(OC)ccc2C(C)(C)C1=O`, the melting point fell in the range of 141 to 143 °C.

With `COc1cc2[nH]c(N(C)Cc3cccc(C4CCN(C)CC4)c3)nc(=O)c2c(C)c1OC`, the melting point was 156 to 158 °C.

Turning to `O=C(O)c1ccc(C(F)(F)F)c(N2CCOCC2)n1`, the melting point lay in the range of 116 to 117 °C.

`COc1cc(NCCCCCCN2CCCN(C)CC2)c2nccc(C)c2c1` had a melting point of 137 to 139 °C.

For `O=C(CCN1CCCC1)Nc1ccc2c(c1)C(=O)c1cc(NC(=O)CCN3CCCC3)ccc1C2=O`, the melting point was 233 °C.

The molecule `CNC(=O)[C@H](NC(=O)c1ccc(F)cc1C(F)(F)F)[C@@H](CNC(C)=O)c1ccccc1` (racemic) showed a melting point of 199 °C.

For the molecule `CCN(CC)Cc1ccc2[nH]c(-c3ccccc3F)cc(=O)c2c1`, the melting point was in the range of 184 to 185 °C.

With `NC(=O)c1cc(Cl)c(Sc2ccc(Cl)cc2)c(Cl)c1`, the melting point was in the range of 171 to 174 °C.

As for `CCOC(=O)c1cnc2ccc(Cl)nn2c1=O`, the melting point lay in the range of 149 to 152 °C.

Take `CC(CN1CCCCC1)Nc1ccnc2cc(Cl)ccc12` (racemic): the melting point is 168 to 171 °C.

Consider `CCC(OC)(c1cncc(OCc2ccc3ccccc3c2)c1)c1nccs1` (centres undefined), for which the melting point fell in the range of 93 to 95 °C.

Consider `CNc1nc(NS(=O)(=O)c2ccc(N)cc2)cc(N(C)C)n1`, for which the melting point was over 300 °C.

Molecule `COC(=O)CS(=O)(=O)c1ccccc1C(=O)OC` yielded a melting point of 102 to 103 °C.

In turn, `CCCCc1cnc2ccccc2c1Nc1ccc(C(=O)O)cc1` gave a melting point of 276 °C.

On to `O=[N+]([O-])c1cccc2c(Br)cc3nc(O)c(O)nc3c12`, for which the melting point was over 300 °C.

Molecule `CC(=O)N1CCN(c2cc3nc(C(C)(C)C)sc3cc2N=C=S)CC1` returned a melting point of 100 to 102 °C.

Regarding `NCCn1nc2c3c(c(Cl)ccc31)C(=O)c1c(OCc3ccccc3)ccc(OCc3ccccc3)c1-2`, the melting point was in the range of 176 to 178 °C.

With `C[C@]12CC[C@@H]3c4ccc(OCC(=O)O)cc4CC[C@H]3[C@@H]1CCC2=O`, the melting point was in the range of 205 to 208 °C.

Turning to `CCCCCCCCCCCCc1nnn(C(C(=O)O)c2ccccc2)n1` (centres undefined), the melting point was 76 to 78 °C.

Consider `O=C(OCCN1CCOCC1)c1ccc(-c2n[nH]c3c2Cc2ccccc2-3)cc1`, for which the melting point was 168 to 172 °C.

`COC1(c2ccc(C(C)C)cc2O)C(=O)c2ccccc2C1=O`: the melting point is 272 to 274 °C.

`CCCc1c(OCCCCCOc2ccc(-c3cc4ccccc4c(=O)o3)cc2CCC(=O)OCC)ccc2c1OCCC2=O`: the melting point worked out at 144 °C.

Consider `OC1CSC(Oc2cncc(-c3ccc(C(F)(F)F)cc3)c2)C(O)C1O` (centres undefined), for which the melting point was in the range of 218 to 219 °C.

With `CCOC(=O)C(C)=NNc1ccc(Br)cc1`, the melting point is 153 to 154 °C.

As to `CCOC(=O)N(Cc1ccccc1)Cn1cc(Cl)cnc1=O`, the melting point turned out to be 143 °C.

`Cn1c(C(=O)Nc2cc3c(cn2)[nH]c2ccccc23)cc2ccccc21`: the melting point lay within 300 to 301 °C.

As for `N#C[C@@H](NCc1ccccc1)[C@@H]1CSC(=O)N1Cc1ccccc1`, the melting point fell in the range of 131 to 132 °C.

`CN1C(=S)NN2CCCC21c1ccccc1` (centres undefined) came in with a melting point of 148 to 151 °C.

With `CC(=O)Nc1ccc(Cl)c2c1C(=O)CCN2C(C)=O`, the melting point was in the range of 175 to 177 °C.

Molecule `CCOC(=O)C(C(=O)OCC)C(=O)C(C)Oc1ccc(Oc2ccc(C#N)cc2)cc1` (centres undefined) gave a melting point of 42 to 46 °C.

As to `CC(C)NC1=NS(=O)(=O)c2cc(Br)cc(Br)c2N1`, the melting point lay in the range of 306 to 311 °C.

`O=C(NC(=O)c1c(Cl)cccc1Cl)Nc1ccc(-c2ccc(Cl)cc2)nc1` returned a melting point of 225 to 229 °C.

With `Cn1c(CO)nc2cc(Cl)cnc21`, the melting point lay within 141 to 142 °C.

Take `Cc1nc2c(CO)cccn2c(=O)c1CCN1CCC(c2noc3cc(F)ccc23)CC1`: the melting point amounted to 186 °C.

In turn, `Clc1ccc(-c2cnccn2)cc1Cl` gave a melting point of 118 to 119 °C.

In the case of `CCOC(=O)c1ncn(Cc2c(F)cccc2F)c1C(=O)OCC`, the melting point fell in the range of 70 to 72 °C.

For `O=C1c2nccnc2C(Cl)N1c1ccc2ccc(Cl)nc2n1` (centres undefined), the melting point stood at 264 °C.

As to `CC(C)Oc1ccc(C(=O)O)c(C(=O)O)c1`, the melting point lay within 116 to 118 °C.

`COc1cccc(-c2nc(-c3ccoc3)n[nH]2)c1`: the melting point lay in the range of 169 to 171 °C.

The molecule `Cc1c2[nH]c(C(=O)O)cc(=O)c2cc2c(=O)cc(C(=O)O)[nH]c12` displayed a melting point of over 310 °C.

`CC(=O)c1ccc2c(c1)c1ccccc1n2CCCCl`: the melting point fell in the range of 109 to 111 °C.

As to `Cc1nc2c(-c3ccc(-c4ccccc4)cc3)nc3ccc(F)cc3c2c(=O)o1`, the melting point was in the range of 188 to 189 °C.

`C#CCN1CCNC1=C[N+](=O)[O-]`: the melting point is 146 to 147 °C.

For `O=C(NCCO)c1ccc([N+](=O)[O-])cc1`, the melting point lay in the range of 134 to 135 °C.

Consider `N#CC=C1CCN(c2ccc(N3CC(CNC(=O)C4CCCN4)OC3=O)cc2F)CC1` (centres undefined), for which the melting point was 155 °C.

`Cc1cnc2sc(S(=O)(=O)c3ccccc3)nn2c1=O` returned a melting point of 198 to 200 °C.

With `COc1cccc(Cc2cc(OC)ccc2O)c1`, the melting point fell in the range of 116 to 118 °C.

`CC1(C)N=C(c2ccccc2F)c2cc(N)ccc2-n2cnnc21` came in with a melting point of 288 °C.

With `O=C(Nc1cccnc1NCc1ccc(Cl)cc1)c1ccccn1`, the melting point lay within 123 to 125 °C.

`Cc1cc(C2(O)C(=O)c3ccccc3C2=O)c(C)cc1O` came in with a melting point of 228 to 230 °C.

As to `C#CCN(c1ccc(C(=O)NC(CCC(=O)NC(CCC(=O)O)C(=O)O)C(=O)O)cc1)C1CCc2cc3nc(CO)[nH]c(=O)c3cc21` (centres undefined), the melting point stood at 172 °C.

In the case of `CC(=O)c1c(C)c(NC=O)c(C)c2c1OCC2c1ccc(C(C)C)cc1` (centres undefined), the melting point was 177 to 179 °C.

In the case of `Oc1cccc(C2CN=C(c3ccccn3)O2)c1` (centres undefined), the melting point was 139 to 141 °C.

`CSc1ccc(N2CCOCC2)c(NC(=N)C(C)C)c1` showed a melting point of 155 °C.

The molecule `C[Si](C)(C)C#CCCCn1ncc(C#N)c1N` showed a melting point of 125 to 127 °C.

`CC(C)CN(CC(O)(Cn1cncn1)c1ccc(Cl)cc1Cl)S(C)(=O)=O` (centres undefined) returned a melting point of 128 to 129 °C.

Take `Cc1ccc(Oc2ccc(-n3cnnn3)cc2)c(O)c1`: the melting point fell in the range of 129 to 132 °C.

Regarding `COC(=O)[C@H]1CN(c2ccc3c(c2)sc(=O)n3C(C)C)C(=O)O1`, the melting point was 161 to 162 °C.

In turn, `Cc1cc(=O)n(C)c2ccc(C3=NNC(=O)CC3CO)cc12` (centres undefined) came in with a melting point of 222 to 223 °C.

Take `O=C(CCN1CCN(Cc2ccccc2)CC1)c1ccc2[nH]c(=O)oc2c1`: the melting point was over 300 °C.

Molecule `O=C(NCCc1ccc(Cl)cc1)c1c(Cl)ccc2nc(N3CCC(C(=O)O)CC3)ccc12` showed a melting point of 231 to 234 °C.

Turning to `CCCc1c(OCC(O)COc2ccc3c(=O)cc(CCC(=O)OCC)oc3c2CCC)ccc(C(C)=O)c1O` (centres undefined), the melting point lay in the range of 137 to 138 °C.

With `N#CCCN1CCC(c2ccccc2)(c2ccccc2)CC1`, the melting point lay within 95 to 96 °C.
